Measurements reported in US6355799B1, “Substituted benzene compounds, process for their preparation, and herbicidal and defoliant compositions containing them” (ISK Americas Incorporated, priority 1997, dated 2002).

Tests used:
Format in all cases: in vivo
[1] = test system: redroot pigweed (Amaranthus retroflexus, AMARE); test: Pre-emerge test, greenhouse herbicide activity screening; details: pre-emerge, phytotoxicity rating 0-100 at 14 days after application
Procedure, shortened: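 Compounds in acetone were track-sprayed at 15-1000 g ai/ha (187 l/ha) on sandy loam pots: pre-emerge one day after seeding, post-emerge at 2-3 leaf stage with 0.25% v/v non-ionic surfactant. Phytotoxicity was rated 14 days later on a 0 (no damage) to 100 (complete death) scale.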

[2] = test system: barnyardgrass (Echinochloa crus-galli, ECHCG); test: as above; details: pre-emerge, phytotoxicity rating 0-100 at 14 days after application
Procedure, shortened: (§1)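 Rating: 0–100 visual injury, 14 DAA. Application: acetone, 187 l/ha, 15–1000 g ai/ha, flat-fan track sprayer with nozzle 40–45 cm above soil or canopy. Post-emerge runs used 0.25% v/v surfactant on 2–3 leaf plants.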

[3] = test system: green foxtail (Setaria viridis, SETVI); test: as above; details: pre-emerge, phytotoxicity rating 0-100 at 14 days after application
Procedure, shortened: as §1

[4] = test system: ivyleaf morningglory (Ipomoea hederacea, IPOHE); test: as above; details: pre-emerge, phytotoxicity rating 0-100 at 14 days after application
Procedure, shortened: as §1

[5] = test system: johnsongrass (Sorghum halepense, SORHA); test: as above; details: pre-emerge, phytotoxicity rating 0-100 at 14 days after application
Procedure, shortened: as §1

[6] = test system: lambsquarters (Chenopodium album, CHEAL); test: as above; details: pre-emerge, phytotoxicity rating 0-100 at 14 days after application
Procedure, shortened: as §1

[7] = test system: large crabgrass (Digitaria sanguinalis, DIGSA); test: as above; details: pre-emerge, phytotoxicity rating 0-100 at 14 days after application
Procedure, shortened: as §1

[8] = test system: sicklepod (Cassia obtusifolia, CASOB); test: as above; details: pre-emerge, phytotoxicity rating 0-100 at 14 days after application
Procedure, shortened: as §1

[9] = test system: velvetleaf (Abutilon theophrasti, ABUTH); test: as above; details: pre-emerge, phytotoxicity rating 0-100 at 14 days after application
Procedure, shortened: as §1

[10] = test system: field corn (Zea mays L., var. Dekalb 535, CORN); test: Pre-emerge test, crop safety; details: crop damage, pre-emerge, phytotoxicity rating 0-100 at 14 days after application
Procedure, shortened: (§2)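 Visual ratings on a 0-100 scale (0 no damage, 100 all plants dead) were taken at 14 days after treatment. Rates of 15-1000 g ai/ha in acetone, 187 l/ha, were sprayed onto soil one day after planting (pre-emerge) or onto 2-3 leaf plants with 0.25% v/v surfactant (post-emerge).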

[11] = test system: upland rice (Oryza sp., var. Tebonnet, RICE); test: Pre-emerge test, crop safety; details: crop damage, pre-emerge, phytotoxicity rating 0-100 at 14 days after application
Procedure, shortened: as §2

[12] = test system: barnyardgrass (Echinochloa crus-galli, ECHCG); test: Post-emerge test, greenhouse herbicide activity screening; details: post-emerge, phytotoxicity rating 0-100 at 14 days after application
Procedure, shortened: (§3)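 Compounds in acetone were track-sprayed at 187 l/ha, 15–1000 g ai/ha, onto sandy loam pots. Pre-emerge seeds were sown one day before spraying, with surface watering afterwards. Post-emerge plants were at the 2–3 leaf stage and sprayed with 0.25% v/v non-ionic surfactant. Injury was rated 0–100 at 14 days.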

[13] = test system: common ragweed (Ambrosia artemisizfolia L., AMBEL); test: as above; details: post-emerge, phytotoxicity rating 0-100 at 14 days after application
Procedure, shortened: as §3

[14] = test system: green foxtail (Setaria viridis, SETVI); test: as above; details: post-emerge, phytotoxicity rating 0-100 at 14 days after application
Procedure, shortened: as §3

[15] = test system: ivyleaf morningglory (Ipomoea hederacea, IPOHE); test: as above; details: post-emerge, phytotoxicity rating 0-100 at 14 days after application
Procedure, shortened: as §3

[16] = test system: johnsongrass (Sorghum halepense, SORHA); test: as above; details: post-emerge, phytotoxicity rating 0-100 at 14 days after application
Procedure, shortened: as §3

[17] = test system: lambsquarters (Chenopodium album, CHEAL); test: as above; details: post-emerge, phytotoxicity rating 0-100 at 14 days after application
Procedure, shortened: as §3

[18] = test system: large crabgrass (Digitaria sanguinalis, DIGSA); test: as above; details: post-emerge, phytotoxicity rating 0-100 at 14 days after application
Procedure, shortened: as §3

[19] = test system: redroot pigweed (Amaranthus retroflexus, AMARE); test: as above; details: post-emerge, phytotoxicity rating 0-100 at 14 days after application
Procedure, shortened: as §3

[20] = test system: sicklepod (Cassia obtusifolia, CASOB); test: as above; details: post-emerge, phytotoxicity rating 0-100 at 14 days after application
Procedure, shortened: as §3

[21] = test system: velvetleaf (Abutilon theophrasti, ABUTH); test: as above; details: post-emerge, phytotoxicity rating 0-100 at 14 days after application
Procedure, shortened: as §3

[22] = test system: field corn (Zea mays L., var. Dekalb 535, CORN); test: Post-emerge test, crop safety; details: post-emerge, crop damage rating 0-100 at 14 days after application
Procedure, shortened: (§4)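 Plants grown in 10 cm pots of sandy loam mix received acetone-dissolved compounds through a moving flat-fan nozzle. Doses ranged from 15 to 1000 g ai/ha. Pre-emerge pots were seeded one day earlier, post-emerge pots 8–21 days earlier. Fourteen days on, each pot was graded 0–100 for damage.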

[23] = test system: upland rice (Oryza sp., var. Tebonnet, RICE); test: Post-emerge test, crop safety; details: post-emerge, crop damage rating 0-100 at 14 days after application
Procedure, shortened: as §4

COc1c(Cl)cc(F)c(-n2ncc(C(F)(F)F)cc2=O)c1NC(=O)c1ccc2ccccc2c1 [Compound 11-6, 2-(4-chloro-6-fluoro-3-methoxy-2-naphthoylamidophenyl)-5-trifluoromethylpyridazin-3-one]
95: Pre-emerge Herbicidal Activity ABUTH ([9]; rate 63 g ai/ha)
60: Post-emerge Herbicidal Activity RICE ([23]; 250 g ai/ha)
0: Pre-emerge Herbicidal Activity IPOHE ([4]; rate 63 g ai/ha) | Pre-emerge Herbicidal Activity SORHA ([5]; rate 63 g ai/ha) | Pre-emerge Herbicidal Activity CORN ([10]; rate 63 g ai/ha) | Pre-emerge Herbicidal Activity RICE ([11]; rate 63 g ai/ha) | Post-emerge Herbicidal Activity SORHA ([16]; 63 g ai/ha) | Post-emerge Herbicidal Activity SORHA ([16]; 250 g ai/ha) | Post-emerge Herbicidal Activity DIGSA ([18]; 63 g ai/ha) | Post-emerge Herbicidal Activity DIGSA ([18]; 250 g ai/ha) | Post-emerge Herbicidal Activity CORN ([22]; 63 g ai/ha)
40: Pre-emerge Herbicidal Activity SORHA ([5]; rate 250 g ai/ha)
50: Pre-emerge Herbicidal Activity RICE ([11]; rate 250 g ai/ha) | Post-emerge Herbicidal Activity ECHCG ([12]; 63 g ai/ha) | Post-emerge Herbicidal Activity SETVI ([14]; 250 g ai/ha)
100: Pre-emerge Herbicidal Activity AMARE ([1]; rate 63 g ai/ha) | Pre-emerge Herbicidal Activity AMARE ([1]; rate 250 g ai/ha) | Pre-emerge Herbicidal Activity ECHCG ([2]; rate 250 g ai/ha) | Pre-emerge Herbicidal Activity SETVI ([3]; rate 63 g ai/ha) | Pre-emerge Herbicidal Activity SETVI ([3]; rate 250 g ai/ha) | Pre-emerge Herbicidal Activity CHEAL ([6]; rate 63 g ai/ha) | Pre-emerge Herbicidal Activity CHEAL ([6]; rate 250 g ai/ha) | Pre-emerge Herbicidal Activity DIGSA ([7]; rate 63 g ai/ha) | Pre-emerge Herbicidal Activity DIGSA ([7]; rate 250 g ai/ha) | Pre-emerge Herbicidal Activity ABUTH ([9]; rate 250 g ai/ha) | Post-emerge Herbicidal Activity AMBEL ([13]; 63 g ai/ha) | Post-emerge Herbicidal Activity AMBEL ([13]; 250 g ai/ha) | Post-emerge Herbicidal Activity IPOHE ([15]; 250 g ai/ha) | Post-emerge Herbicidal Activity CHEAL ([17]; 250 g ai/ha) | Post-emerge Herbicidal Activity AMARE ([19]; 63 g ai/ha) | Post-emerge Herbicidal Activity AMARE ([19]; 250 g ai/ha) | Post-emerge Herbicidal Activity CASOB ([20]; 63 g ai/ha) | Post-emerge Herbicidal Activity CASOB ([20]; 250 g ai/ha) | Post-emerge Herbicidal Activity ABUTH ([21]; 63 g ai/ha) | Post-emerge Herbicidal Activity ABUTH ([21]; 250 g ai/ha)
90: Pre-emerge Herbicidal Activity ECHCG ([2]; rate 63 g ai/ha)
10: Post-emerge Herbicidal Activity SETVI ([14]; 63 g ai/ha)
99: Pre-emerge Herbicidal Activity CASOB ([8]; rate 250 g ai/ha)
80: Pre-emerge Herbicidal Activity IPOHE ([4]; rate 250 g ai/ha) | Post-emerge Herbicidal Activity ECHCG ([12]; 250 g ai/ha) | Post-emerge Herbicidal Activity CHEAL ([17]; 63 g ai/ha)
20: Pre-emerge Herbicidal Activity CASOB ([8]; rate 63 g ai/ha) | Pre-emerge Herbicidal Activity CORN ([10]; rate 250 g ai/ha) | Post-emerge Herbicidal Activity CORN ([22]; 250 g ai/ha) | Post-emerge Herbicidal Activity RICE ([23]; 63 g ai/ha)
70: Post-emerge Herbicidal Activity IPOHE ([15]; 63 g ai/ha)
